Where “and” joins values, the source holds several entries; their conditions need not be identical. Identical values can stand only once. Entries after “also recorded” stand apart in the source; their conditions may differ.
Key:
[1] = tested on: HCV infected cells; settings: in vitro; cited from earlier work
[2] = tested on: influenza virus; settings: combination with ribavirin vs ribavirin alone; cited from earlier work
[3] = molecular target: T1, fatty acid amide hydrolase (FAAH) (Rattus norvegicus, UniProt P97612); settings: rat brain homogenates; read-out: IC50, inhibition of anandamide hydrolysis; cited from earlier work
T1 construct: from tissue; host or cells: rat brain homogenates
T1 sequence (P97612 1-579): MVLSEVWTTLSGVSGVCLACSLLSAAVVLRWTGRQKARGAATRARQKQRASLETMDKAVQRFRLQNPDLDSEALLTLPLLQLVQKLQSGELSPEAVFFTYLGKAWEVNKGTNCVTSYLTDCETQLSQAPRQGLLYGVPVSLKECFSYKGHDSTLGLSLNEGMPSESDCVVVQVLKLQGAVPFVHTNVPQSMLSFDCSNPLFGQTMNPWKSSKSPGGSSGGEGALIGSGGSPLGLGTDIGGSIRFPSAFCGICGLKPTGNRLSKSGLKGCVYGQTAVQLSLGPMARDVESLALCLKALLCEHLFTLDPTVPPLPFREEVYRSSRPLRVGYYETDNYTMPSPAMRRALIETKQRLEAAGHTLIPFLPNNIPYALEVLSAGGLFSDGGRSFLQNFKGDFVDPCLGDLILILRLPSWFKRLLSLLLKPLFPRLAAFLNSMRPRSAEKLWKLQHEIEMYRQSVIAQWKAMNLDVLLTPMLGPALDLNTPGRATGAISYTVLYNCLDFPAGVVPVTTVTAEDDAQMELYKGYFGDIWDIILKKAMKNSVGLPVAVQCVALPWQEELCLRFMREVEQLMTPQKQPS

[4] = molecular target: CB1 receptor (Homo sapiens, UniProt P21554); settings: read-out: I value at the CB1 receptor; cited from earlier work
[5] = tested on: CB1 and CB2; settings: cited from earlier work; for Agonism or antagonism against CB1 and CB2: up to 20 μM
[6] = tested on: TCR β chain immune repertoire; assay: T cell receptor β chain immune repertoire diversity index after a controlled dose (iRepertoire sequencing of blood); assay type: in vivo, human; settings: for Total number of clonotypes: within 24-48 hr of applied dose
[7] = tested on: HIV; settings: cited from earlier work
[8] = tested on: A/H1N1 Singapore 6/86 influenza virus; settings: cited from earlier work
[9] = tested on: HIV; settings: 293.27.2, H9, MOLT-4 cells, PBMCs; with or without TNFα / PMA stimulation; cited from earlier work
[10] = tested on: influenza A (H5N1) viruses; settings: lung epithelial cells; cited from earlier work
[11] = tested on: A/swine/HeBei/012/2008 (H9N2) viruses; settings: intra-nasal inoculation with or without NAC; cited from earlier work
[12] = tested on: human PBMCs; settings: NAC 1 mM, in vitro; cited from earlier work
[13] = Intoxication after topical application of THC salve; settings: 10 mg THC, application for three days
[14] = molecular target: GPR55 (Homo sapiens, UniProt Q9Y2T6); settings: cited from earlier work
[15] = cited from earlier work
[16] = molecular target: monoacylglycerol lipase (MAGL); settings: reversible mechanism; read-out: IC50, inhibition of MAGL; cited from earlier work
[17] = molecular target: CB2 receptor (Homo sapiens, UniProt P34972); settings: nM concentrations; cited from earlier work
[18] = tested on: influenza virus strain A/PR8(H1N1); settings: lethal influenza infection in mice; cited from earlier work

GPR55, sequence (Q9Y2T6 whole entry, species assumed): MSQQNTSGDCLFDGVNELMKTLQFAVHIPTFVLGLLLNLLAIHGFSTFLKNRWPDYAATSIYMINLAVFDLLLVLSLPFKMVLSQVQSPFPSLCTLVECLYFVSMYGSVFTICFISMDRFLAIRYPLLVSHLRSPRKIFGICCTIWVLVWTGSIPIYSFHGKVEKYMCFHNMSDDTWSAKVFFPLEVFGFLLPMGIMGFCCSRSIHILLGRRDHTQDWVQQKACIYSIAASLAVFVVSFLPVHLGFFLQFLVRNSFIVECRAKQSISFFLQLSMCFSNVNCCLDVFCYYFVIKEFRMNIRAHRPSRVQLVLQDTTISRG
CB2 receptor, sequence (P34972 whole entry): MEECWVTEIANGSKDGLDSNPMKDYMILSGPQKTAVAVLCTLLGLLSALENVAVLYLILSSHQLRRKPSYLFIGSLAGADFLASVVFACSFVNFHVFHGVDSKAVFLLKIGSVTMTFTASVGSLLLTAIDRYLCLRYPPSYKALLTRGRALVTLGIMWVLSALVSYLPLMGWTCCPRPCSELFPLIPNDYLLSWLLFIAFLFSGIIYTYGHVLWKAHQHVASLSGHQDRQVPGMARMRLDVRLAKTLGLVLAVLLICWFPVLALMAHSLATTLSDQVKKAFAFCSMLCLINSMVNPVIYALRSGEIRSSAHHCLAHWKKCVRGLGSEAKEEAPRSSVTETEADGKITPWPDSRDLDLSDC
CB1 receptor, sequence (P21554 whole entry): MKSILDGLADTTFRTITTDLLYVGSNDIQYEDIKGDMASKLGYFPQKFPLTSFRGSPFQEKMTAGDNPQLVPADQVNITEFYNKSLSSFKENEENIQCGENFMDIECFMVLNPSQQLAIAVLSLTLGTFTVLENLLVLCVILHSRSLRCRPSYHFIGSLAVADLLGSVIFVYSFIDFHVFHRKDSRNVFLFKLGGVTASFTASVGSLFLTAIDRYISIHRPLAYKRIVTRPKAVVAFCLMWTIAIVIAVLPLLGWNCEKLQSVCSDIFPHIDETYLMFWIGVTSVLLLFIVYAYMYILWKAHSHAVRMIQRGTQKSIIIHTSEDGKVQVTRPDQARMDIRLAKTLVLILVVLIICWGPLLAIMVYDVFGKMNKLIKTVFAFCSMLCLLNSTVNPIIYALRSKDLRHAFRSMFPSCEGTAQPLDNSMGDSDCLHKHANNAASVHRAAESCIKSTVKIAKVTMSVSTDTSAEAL

In the case of `C=C(C)[C@@H]1CCC(C)=C[C@H]1c1c(O)cc(CCCCC)cc1O` [CBD, cannabidiol], the “Cell death of HCV infected cells” value [1] is listed as “approximately 85%”.

In the case of `NC(=O)c1ncn([C@@H]2O[C@H](CO)[C@@H](O)[C@H]2O)n1` [ribavirin], the Survival rate [2] is given as 58%.

In the case of `O=c1cc(-c2ccccc2)oc2cc(O)ccc12` [7-hydroxyflavone], the IC50 [3] is listed as less than 1000 nM.

In the case of `C=C[C@H](O)C#CC#CC/C=C\CCCCCCC` [falcarinol], the Ki [4] is given as less than 1000 nM.

For `Cc1nc(N2CCN(C(=O)c3ccco3)CC2)c2c3c(sc2n1)CCCC3` [ML192], the “Agonism or antagonism against CB1 and CB2” value (“Agonism or antagonism” below) [5] is listed as “no observed agonism or antagonism”.

For `CC(=O)N[C@@H](CS)C(=O)O` [NAC, N-acetylcysteine], the “Diversity index, Dosed” value ([6]; NAC single 1200 mg dose (2×600 mg effervescent tablets), 24 hours post dose) was 20.0 and 15.9, the “Diversity index, Fold change” value ([6]; NAC single 1200 mg dose, 24 hours vs baseline) was 1.6 fold and 1.5 fold and the “Time until immune diversity returns to baseline” value ([6]; after a single dose) was 24 h. The “Total number of clonotypes” value [6] was “increases”, the “Survival, risk ratio” value ([7]; 73 subjects with survival data, P=0.0003, median NAC dose 5.3 g/day, median 24 weeks) was 0.3 (0.1-0.6) and the Viral load ([7]; NAC treatment during the trial, P>0.1) was “did not result in a significant change”. For the same compound, the “CD4 T cell count” value ([7]; NAC treatment during the trial, P>0.9) was “did not result in a significant change”, the “Whole blood GSH and T cell GSH” value ([7]; NAC treatment for 8 weeks) was “replenished” and the Tolerability ([8]; NAC 600 mg twice daily for 6 months) was “well tolerated”. The “Virus-infected subjects who developed a symptomatic form” value ([8]; NAC effervescent tablets 600 mg twice daily for 6 months, 79% in the placebo group) was 25%, the HIV replication [9] was “inhibit HIV replication; also recorded: blocked stimulation of HIV replication” and the “Production of pro-inflammatory molecules” value [10] was “inhibit”. The “Pulmonary inflammation, edema, myeloperoxidase, cells and cytokines in BAL fluid” value [11] was “reduced” and the “Influenza virus specific T lymphocyte proliferation and IFNγ production” value [12] was “increase”.

In the case of `Cc1cc(C)c2nc(-c3ccccn3)cc(C(=O)Nc3ccc(S(=O)(=O)Nc4onc(C)c4C)cc3)c2c1` [ML193], the “Agonism or antagonism” value [5] is listed as “no observed agonism or antagonism”.

With `CCCCCc1cc(O)c2c(c1)OC(C)(C)[C@@H]1CCC(C)=C[C@@H]21` [THC, Δ^9-tetrahydrocannabinol] the “Total number of clonotypes” value [6] was “rapidly increases” and the “Intoxication characteristic of THC” value [13] was “without intoxication”.

In the case of `COc1ccc(S(=O)(=O)N2CCOCC2)cc1NC(=O)c1cc2c(s1)CCCC2` [ML186], the “Potency for GPR55” value [14] is listed as 305 nM and the “Selectivity against CB1 and CB2” value [5] is listed as “greater than 100 fold”.

In the case of `Cc1ccc(C2(C(=O)N3CCC(n4nc(-c5ccccc5)oc4=O)CC3)CC2)cc1` [ML191], the “Agonism or antagonism” value [5] is given as “no observed agonism or antagonism”.

For `CCCCCc1cc(O)c2c(c1)OC(C)(C)[C@@H]1CCC(C)=C[C@@H]21` [Dronabinol], the “Amount reaching the blood stream by absorption through the digestive system” value ([15]; oral) is given as 10-20 % of the administered dose and the “Duration of peak therapeutic effect” value ([15]; post administration) is given as 2 to 4 h.

For `Cc1cccc(N2CCN(C(=O)c3cc(S(=O)(=O)N(C)C)ccc3N3CCCC3)CC2)c1C` [ML184], the “Potency for GPR55” value [14] is given as 263 nM and the “Selectivity against CB1 and CB2” value [5] is given as 57 fold.

In the case of `CC(C)=CCC[C@@H](C)[C@@H]1CC[C@]2(C)C3=C(CC[C@@]12C)[C@@]1(C)CC[C@H](O)C(C)(C)[C@@H]1CC3` [euphol], the IC50 [16] is listed as 315 nM.

In the case of `C=C1CC/C=C(\C)CC[C@@H]2[C@@H]1CC2(C)C` [β-caryophyllene], the “Functional activity at the CB2 receptor” value [17] is given as “full agonist”.

In the case of `CCOC(=O)C1=C[C@@H](OC(CC)CC)[C@H](NC(C)=O)[C@@H](N)C1` [oseltamivir], the Survival rate [18] is given as 60%.

For `COc1ccc(-c2csc(NC(=O)CSc3nnc4c(C)cc5ccccc5n34)n2)cc1` [ML185], the “Potency for GPR55” value [14] is given as 658 nM and the “Selectivity against CB1 and CB2” value [5] is given as “greater than 48 fold”.
